target: T1, PDE7 (type VII phosphodiesterase) (Homo sapiens, UniProt Q13946); assay: PDE7 inhibiting activity (3H-cAMP hydrolysis, active fraction from MOLT-4 cells); assay type: biochemical; conditions: PDE7 fraction from MOLT-4 cells, 0.064 μM cAMP, 10 μM rolipram present, 2 hours at 25° C.; read-out: IC50 values for phosphodiesterase inhibiting activities (PDE7)
T1 construct: endogenous in cells; host or cells: MOLT-4 (ATCC CRL-1582), soluble fraction, HiTrapQ anion-exchange fraction
Method: To evaluate the compounds of the present invention for the ability to suppress PDE7 (type VII phosphodiesterase), the method of Biochemical Pharmacol. 48(6), 1219-1223 (1994) was partially modified to perform the following assay:
1) PDE7 (type VII phosphodiesterase) active fraction was obtained. That is, human acute lymphoblastoid lymphoma T cell strain MOLT-4 (purchasable from ATCC under ATCC No. CRL-1582) was cultured in RPMI1640 medium containing 10% fetal bovine serum to obtain 5×10^8 MOLT4 cells. The cells were harvested by centrifugation, and suspended in 10 ml of buffer A (25 mM tris-HCl, 5 mM 2-mercaptoethanol, 2 mM benzamidine, 2 mM EDTA, 0.1 mM 4-(2-aminoethyl)benzenesulfonyl hydrochloride, pH 7=7.5). The cells were homogenized in a Polytoron homogenizer, and centrifuged (4° C., 25,000 G, 10 min). The supernatant was further ultracentrifuged (4° C., 100,000 G, 60 min), and the resulting supernatant was filtered through a 0.2 μm filter to obtain a soluble fraction.
2) HiTrapQ column (5 ml×2) equilibrated with buffer A was charged with the resulting soluble fraction. Phosphodiesterase was eluted using 300 ml of buffer A containing a linear gradient solution of 0 to 0.8M sodium chloride to collect sixty 5 ml fractions. Each fraction was tested for cAMP metabolizing phosphodiesterase activity.
3) The test compounds at desired concentrations were each reacted for 2 hours at 25° C. in a reactant mixture containing 20 mM tris-HCl (pH 7.5), 1 mM MgCl2, 100 μM EDTA, 330 μg/ml bovine serum albumin, 4 μg/ml 5′-nucleotidase, 0.1 μCi^3H-cAMP (0.064 μM cAMP), 10 μM rolipram, and the type VII phosphodiesterase stored solution. QAE-Sephadex suspended in 10 mM HEPES-Na (pH 7.0) was added to the reaction mixture, and the mixture was allowed to stand for 5 minutes. Then, the supernatant was recovered, and QAE-Sephadex was further added, followed by allowing the mixture to stand for 5 minutes. Then, the resulting supernatant was measure for radioactivity.
4) IC50, as the concentration of the test compound that inhibited 50% of the metabolic activity of PDE7, was calculated for each of the compounds.

T1 sequence (Q13946 whole entry): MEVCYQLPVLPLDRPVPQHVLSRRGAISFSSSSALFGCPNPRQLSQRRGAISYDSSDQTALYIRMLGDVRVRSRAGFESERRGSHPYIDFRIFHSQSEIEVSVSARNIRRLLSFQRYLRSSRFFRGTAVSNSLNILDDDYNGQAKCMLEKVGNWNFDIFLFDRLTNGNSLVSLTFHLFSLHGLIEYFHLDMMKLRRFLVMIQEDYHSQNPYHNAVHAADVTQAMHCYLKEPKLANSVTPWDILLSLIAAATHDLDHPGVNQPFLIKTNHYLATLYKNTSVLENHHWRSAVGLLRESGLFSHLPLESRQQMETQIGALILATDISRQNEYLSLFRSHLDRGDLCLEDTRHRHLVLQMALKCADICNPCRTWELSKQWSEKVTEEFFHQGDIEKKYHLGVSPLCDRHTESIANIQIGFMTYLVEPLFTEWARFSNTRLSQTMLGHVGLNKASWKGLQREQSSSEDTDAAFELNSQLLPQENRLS

| SMILES | IC50 |
| --- | --- |
| COc1cc(NC(C)=O)ccc1-c1nc2c(c(C3CCCCC3)nn2C)c(=O)[nH]1 [Example 45, N-[4-(3-cyclohexyl-1-methyl-4-oxo-4,5-dihydro-1H-pyrazolo[3,4-d]pyrimidin-6-yl)-3-methoxyphenyl]acetamide] | ≤ 1000 nM |
| COCC(=O)Nc1ccc(-c2nc3c(c(C4CCCCC4)nn3C)c(=O)[nH]2)c(OC)c1 [Example 46, N-[4-(3-cyclohexyl-1-methyl-4-oxo-4,5-dihydro-1H-pyrazolo[3,4-d]pyrimidin-6-yl)-3-methoxyphenyl]-2-methoxyacetamide] | ≤ 10 nM |
| CNc1ccc(-c2nc3c(c(C4CCCCC4)nn3C)c(=O)[nH]2)c(OC)c1 [Example 47, 3-Cyclohexyl-6-[2-methoxy-4-(methylamino)phenyl]-1-methyl-1,5-dihydro-4H-pyrazolo[3,4-d]pyrimidin-4-one] | ≤ 10 nM |
| COc1cc(S(=O)(=O)N2CCN(C)CC2)ccc1-c1nc2c(c(C3CCCCC3)nn2C)c(=O)[nH]1 [Example 50, 3-Cyclohexyl-6-{2-methoxy-4-[(4-methyl-1-piperazinyl)sulfonyl]phenyl}-1-methyl-1,5-dihydro-4H-pyrazolo[3,4-d]pyrimidin-4-one monochloride] | ≤ 1000 nM |
| COc1cc(S(=O)(=O)N2CCOCC2)ccc1-c1nc2c(c(C3CCCCC3)nn2C)c(=O)[nH]1 [Example 51, 3-Cyclohexyl-6-[2-methoxy-4-(4-morpholinylsulfonyl)phenyl]-1-methyl-1,5-dihydro-4H-pyrazolo[3,4-d]pyrimidin-4-one] | ≤ 10 nM |
| COc1cc(S(=O)(=O)N2CCC(O)CC2)ccc1-c1nc2c(c(C3CCCCC3)nn2C)c(=O)[nH]1 [Example 52, 3-Cyclohexyl-6-{4-[(4-hydroxy-1-piperidinyl)sulfonyl]-2-methoxyphenyl}-1-methyl-1,5-dihydro-4H-pyrazolo[3,4-d]pyrimidin-4-one] | ≤ 10 nM |
| COc1cc(S(=O)(=O)N2CCC(C(=O)O)CC2)ccc1-c1nc2c(c(C3CCCCC3)nn2C)c(=O)[nH]1 [Example 54, 1-{[4-(3-Cyclohexyl-1-methyl-4-oxo-4,5-dihydro-1H-pyrazolo[3,4-d]pyrimidin-6-yl)-3-methoxyphenyl]sulfonyl}-4-piperidinecarboxylic acid] | ≤ 1000 nM |
| COc1cc(S(=O)(=O)NCCN(C)C)ccc1-c1nc2c(c(C3CCCCC3)nn2C)c(=O)[nH]1 [Example 56, 4-(3-Cyclohexyl-1-methyl-4-oxo-4,5-dihydro-1H-pyrazolo[3,4-d]pyrimidin-6-yl)-N-[2-(dimethylamino)ethyl]-3-methoxybenzenesulfonamide monochloride] | ≤ 1000 nM |
| COCCNS(=O)(=O)c1ccc(-c2nc3c(c(C4CCCCC4)nn3C)c(=O)[nH]2)c(OC)c1 [Example 57, 4-(3-Cyclohexyl-1-methyl-4-oxo-4,5-dihydro-1H-pyrazolo[3,4-d]pyrimidin-6-yl)-3-methoxy-N-(2-methoxyethyl) benzenesulfonamide] | ≤ 1000 nM |
| COc1cc(S(=O)(=O)NCCO)ccc1-c1nc2c(c(C3CCCCC3)nn2C)c(=O)[nH]1 [Example 58, 4-(3-Cyclohexyl-1-methyl-4-oxo-4,5-dihydro-1H-pyrazolo[3,4-d]pyrimidin-6-yl)-N-(2-hydroxyethyl)-3-methoxybenzenesulfonamide] | ≤ 1000 nM |
| COc1cc(N2CCOCC2)ccc1-c1nc2c(c(C3CCCCC3)nn2C)c(=O)[nH]1 [Example 59, 3-Cyclohexyl-6-[2-methoxy-4-(4-morpholinyl)phenyl]-1-methyl-1,5-dihydro-4H-pyrazolo[3,4-d]pyrimidin-4-one] | ≤ 1000 nM |
| COc1cc(N2CCNCC2)ccc1-c1nc2c(c(C3CCCCC3)nn2C)c(=O)[nH]1 [Example 60, 3-Cyclohexyl-6-[2-methoxy-4-(1-piperazinyl)phenyl]-1-methyl-1,5-dihydro-4H-pyrazolo[3,4-d]pyrimidin-4-one] | ≤ 10 nM |

Reference: patent publication US7268128B2, “1,3,5-trisubstituted-5-phenyl and 5-pyridyl pyrazolopyrimidinone derivatives having PDE7 inhibiting action” (Ausbio Pharma Co., Ltd., priority 2001, dated 2007)
